The structures appear in SMILES notation.

In assay [1] the target is T1, human type 1 5α-reductase (Homo sapiens, UniProt P18405).
T1 sequence (P18405 1-259): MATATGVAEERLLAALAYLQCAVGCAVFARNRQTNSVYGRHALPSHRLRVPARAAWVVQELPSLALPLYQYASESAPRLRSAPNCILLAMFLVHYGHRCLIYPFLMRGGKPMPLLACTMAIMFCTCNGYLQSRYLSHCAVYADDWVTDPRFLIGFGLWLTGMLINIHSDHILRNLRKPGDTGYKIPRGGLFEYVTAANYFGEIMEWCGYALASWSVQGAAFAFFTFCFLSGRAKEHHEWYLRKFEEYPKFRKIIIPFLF
The experiment in a line: 5α-reductase in vitro inhibitory activity, human type 1.
Procedure: (§1) Microsomes were prepared by homogenization of the tissue or cells, followed by differential centrifugation of the homogenate. […] Corresponding incubations were carried out with no test compound as a control study.
For type 2 IC50 measurements, assay components except testosterone were preincubated for 20 minutes at pH 6.0, and following the addition of 8nM testosterone the assays were allowed to proceed for 20-40 minutes. The percentage of conversion of testosterone to DHT in the presence of test compounds compared to the corresponding conversion in the control study was estimated using high pressure liquid chromatography (HPLC) with radiochemical detection.

In assay [2] the target is T2, human type 2 5α-reductase (Homo sapiens, UniProt P31213).
T2 sequence (P31213 1-254): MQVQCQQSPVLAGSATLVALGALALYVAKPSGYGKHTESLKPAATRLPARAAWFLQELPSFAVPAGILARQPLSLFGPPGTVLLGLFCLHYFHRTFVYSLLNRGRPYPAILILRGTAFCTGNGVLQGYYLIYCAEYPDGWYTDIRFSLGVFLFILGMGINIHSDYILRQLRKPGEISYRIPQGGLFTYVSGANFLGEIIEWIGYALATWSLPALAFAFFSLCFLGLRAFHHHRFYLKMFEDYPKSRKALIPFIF
The experiment in a line: 5α-reductase in vitro inhibitory activity, human type 2.
Procedure: as §1
(§2) The percentage of conversion of testosterone to DHT in the presence of test compounds compared to the corresponding conversion in the control study was estimated using high pressure liquid chromatography (HPLC) with radiochemical detection.

Assay [3] addresses Rat Prostatic 5α-reductase. Briefly: 5α-reductase in vitro inhibitory activity, rat prostatic. Particulars: read-out: IC50 Rat Prostatic; microsomes derived from prostate tissue from the rat.
Procedure: as §1, §2

Turning to `Cc1cc(C(C)(C)C)cc(C)c1NC(=O)[C@H]1CC[C@H]2[C@@H]3CNC4=CC(=O)CC[C@]4(C)[C@H]3CC[C@]12C` [Compound 48, 17β-N-(2,6-Dimethyl-4-t-butyl)phenyl-carbamoyl-6-azaandrost-4-en-3-one], the IC50 is less than 10 nM in assay [1], less than 10 nM in assay [2] and 10 to 100 nM in assay [3].

Consider `C[C@]12CC[C@H]3[C@@H](CNC4=CC(=O)CC[C@@]43C)[C@@H]1CC[C@@H]2C(=O)NCc1ccc(C(F)(F)F)cc1` [Compound 30, 17β-N-(4-Trifluoromethylphenyl)methyl-carbamoyl-6-azaandrost-4-en-3-one], for which the results for the IC50 in assay [1], in assay [2] and in assay [3] were 10 to 100 nM, less than 10 nM and 10 to 100 nM, respectively.

As for `Cc1ccc(CCNC(=O)C2CCC3C4CNC5=CC(=O)CCC5(C)C4CCC23C)cc1` (stereo not drawn) [Compound 12, 17β-N-(4-Methyl)phenethyl-carbamoyl-6-azaandrost-4-en-3-one], the half-inhibitory concentration (IC50) in assay [1] was 10 to 100 nM; in assay [2], less than 10 nM; in assay [3], less than 10 nM.

As for `CC1(C)C2CCC(CNC(=O)[C@H]3CC[C@H]4[C@@H]5CNC6=CC(=O)CC[C@]6(C)[C@H]5CC[C@]34C)C1C2` (stereo partly drawn) [Compound 39, 17β-N-Myrantyl-carbamoyl-6-azaandrost-4-en-3-one], the IC50 in assay [1] was 10 to 100 nM; in assay [2], less than 10 nM; in assay [3] it was 10 to 100 nM.

With `Cc1cc(Br)cc(C)c1NC(=O)[C@H]1CC[C@H]2[C@@H]3CNC4=CC(=O)CC[C@]4(C)[C@H]3CC[C@]12C` [Compound 46, 17β-N-(2,6-Dimethyl-4-bromo)phenyl-carbamoyl-6-azaandrost-4-en-3-one], the values for the IC50 in assay [1], in assay [2] and in assay [3] were 10 to 100 nM, less than 10 nM and less than 10 nM, respectively.

As for `C[C@]12CC[C@H]3[C@@H](CNC4=CC(=O)CC[C@@]43C)[C@@H]1CC[C@@H]2C(=O)NCC(c1ccccc1)c1ccccc1` [Compound 22, 17β-N-(2,2-Diphenyl)ethyl-carbamoyl-6-azaandrost-4-en-3-one], the IC50 in assay [1] is 10 to 100 nM; in assay [2], less than 10 nM; in assay [3], less than 10 nM.

`CCCCCCCCCCc1ccc(NC(=O)[C@H]2CC[C@H]3[C@@H]4CNC5=CC(=O)CC[C@]5(C)[C@H]4CC[C@]23C)cc1` [Compound 36, 17β-N-(4-Decyl)phenyl-carbamoyl-6-azaandrost-4-en-3-one]: the values for the half-inhibitory concentration (IC50) in assay [1], in assay [2] and in assay [3] were more than 100 nM, less than 10 nM and less than 10 nM, respectively.

As to `CC12CCC(=O)C=C1NCC1C2CCC2(C)C(C(=O)Nc3ccc(N4CCOCC4)cc3)CCC12` (stereo not drawn) [Compound 5, 17β-N-Phenyl-(4-morpholino)-carbamoyl-6-azaandrost-4-en-3-one], the concentration for half-maximal inhibition (IC50) in assay [1] is more than 100 nM; in assay [2], 10 to 100 nM; in assay [3], 10 to 100 nM.

For the compound `CC12CCC(=O)C=C1NCC1C2CCC2(C)C(C(=O)Nc3ccccc3C(F)(F)F)CCC12` (stereo not drawn) [Compound 9, 17β-N-(2-Trifluoromethyl)phenyl-carbamoyl-6-azaandrost-4-en-3-one], the IC50 in assay [1] is 10 to 100 nM; in assay [2], less than 10 nM; in assay [3] it was less than 10 nM.

As to `C[C@]12CC[C@H]3[C@@H](CNC4=CC(=O)CC[C@@]43C)[C@@H]1CC[C@@H]2C(=O)NC(c1ccc(F)cc1)c1cccs1` (stereo partly drawn) [Compound 18, 17β-N-(4-Fluorophenyl)(2-thiophene)methyl-carbamoyl-6-azaandrost-4-en-3-one], the half-inhibitory concentration (IC50) in assay [1] is 10 to 100 nM; in assay [2] it was less than 10 nM; in assay [3], less than 10 nM.

For `C[C@]12CC[C@H]3[C@@H](CNC4=CC(=O)CC[C@@]43C)[C@@H]1CC[C@@H]2C(=O)Nc1ccccc1Br` [Compound 52, 17β-N-(2-Bromo)phenyl-carbamoyl-6-azaandrost-4-en-3-one], the IC50 in assay [1] was 10 to 100 nM; in assay [2], less than 10 nM; in assay [3], 10 to 100 nM.

As to `C[C@]12CC[C@H]3[C@@H](CNC4=CC(=O)CC[C@@]43C)[C@@H]1CC[C@@H]2C(=O)NC1c2ccccc2-c2ccccc21` [Compound 1, 17β-N-9-Fluorenyl-carbamoyl-6-azaandrost-4-en-3-one], the IC50 was more than 100 nM in assay [1], less than 10 nM in assay [2] and 10 to 100 nM in assay [3].

As to `CC(C)(C)c1ccc(C(C)(C)C)c(NC(=O)C2CCC3C4CNC5=CC(=O)CCC5(C)C4CCC23C)c1` (stereo not drawn) [Compound 10, 17β-N-(2,5-Di-t-butyl)phenyl-carbamoyl-6-azaandrost-4-en-3-one], the IC50 in assay [1] was less than 10 nM; in assay [2], less than 10 nM; in assay [3], 10 to 100 nM.

As for `C[C@]12CC[C@H]3[C@@H](CNC4=CC(=O)CC[C@@]43C)[C@@H]1CC[C@@H]2COC(=O)C12CC3CC(CC(C3)C1)C2` [Compound 38, 17β-Hydroxymethyl-(1-adamantylcarboxylate)-6-azaandrost-4-en-3-one], the IC50 in assay [1] is 10 to 100 nM; in assay [2], less than 10 nM; in assay [3], more than 100 nM.

Regarding `C[C@]12CC[C@H]3[C@@H](CNC4=CC(=O)CC[C@@]43C)[C@@H]1CC[C@@H]2C(=O)CC(c1ccccc1)c1ccccc1` [Compound 43, 17β-(1-Oxo-3.3-diphenylpropyl)-6-azaandrost-4-en-3-one], the IC50 was less than 10 nM in assay [1], less than 10 nM in assay [2] and more than 100 nM in assay [3].

With `C[C@]12CC[C@H]3[C@@H](CNC4=CC(=O)CC[C@@]43C)[C@@H]1CC[C@@H]2C(=O)CC1CCCCC1` [Compound 2, 17β-(1-Oxo-2-cyclohexylethyl)-6-azaandrost-4-en-3-one], the half-maximal inhibitory concentration (IC50) in assay [1], in assay [2] and in assay [3] was less than 10 nM each time.

Take `C[C@]12CC[C@H]3[C@@H](CNC4=CC(=O)CC[C@@]43C)[C@@H]1CC[C@@H]2C(=O)Nc1cc(C(F)(F)F)ccc1Cl` [Compound 44, 17β-N-(2-Chloro-5-trifluoromethyl)-phenyl-carbamoyl-6-azaandrost-4-en-3-one]: the values for the IC50 in assay [1], in assay [2] and in assay [3] were 10 to 100 nM, less than 10 nM and more than 100 nM, respectively.

As to `C[C@]12CC[C@H]3[C@@H](CNC4=CC(=O)CC[C@@]43C)[C@@H]1CC[C@@H]2C(=O)NCC1CCCCC1` [Compound 31, 17β-methylenecyclohexyl-carbamoyl-6-azaandrost-4-en-3-one], the IC50 in assay [1] is 10 to 100 nM; in assay [2], less than 10 nM; in assay [3], less than 10 nM.

As for `C[C@]12CC[C@H]3[C@@H](CNC4=CC(=O)CC[C@@]43C)[C@@H]1CC[C@@H]2C(=O)Nc1cc(C(F)(F)F)ccc1C(F)(F)F` [Compound 50, 17β-N-(2,5-Ditrifluoromethyl)phenyl-carbamoyl-6-azaandrost-4-en-3-one], the figures for the IC50 in assay [1], in assay [2] and in assay [3] were less than 10 nM, less than 10 nM and 10 to 100 nM, respectively.

With `CC(NC(=O)[C@H]1CC[C@H]2[C@@H]3CNC4=CC(=O)CC[C@]4(C)[C@H]3CC[C@]12C)c1ccccc1` (stereo partly drawn) [Compound 35, 17β-N-(1-Phenyl)ethyl-carbamoyl-6-azaandrost-4-en-3-one], the IC50 in assay [1] was more than 100 nM; in assay [2] it was less than 10 nM; in assay [3] it was less than 10 nM.

Regarding `CC(C)(C)C(=O)OCC1CCC2C3CNC4=CC(=O)CCC4(C)C3CCC12C` (stereo not drawn) [Compound 3, 17β-Hydroxymethyl-(trimethylacetate)-6-azaandrost-4-en-3-one], the 50% inhibitory concentration (IC50) in assay [1] is 10 to 100 nM; in assay [2], 10 to 100 nM; in assay [3], less than 10 nM.

In the case of `C[C@]12CC[C@H]3[C@@H](CNC4=CC(=O)CC[C@@]43C)[C@@H]1CC[C@@H]2C(=O)Nc1ccccc1-c1ccccc1` [Compound 53, 17β-N-(2-Phenyl)phenyl-carbamoyl-6-azaandrost-4-en-3-one], the half-maximal inhibitory concentration (IC50) was 10 to 100 nM in assay [1], less than 10 nM in assay [2] and less than 10 nM in assay [3].

Regarding `CC(C)(CO)NC(=O)[C@H]1CC[C@H]2[C@@H]3CNC4=CC(=O)CC[C@]4(C)[C@H]3CC[C@]12C` [Compound 21, 17β-N-(1,1-Dimethyl)-2-hydroxyethyl-carbamoyl-6-azaandrost-4-en-3-one], the IC50 was more than 100 nM in assay [1], 10 to 100 nM in assay [2] and more than 100 nM in assay [3].

For the compound `CC12CCC(=O)C=C1NCC1C2CCC2(C)C(C(=O)Nc3ccc4c(c3)OCO4)CCC12` (stereo not drawn) [Compound 7, 17β-N-(3,4-Methylenedioxy)phenyl-carbamoyl-6-azaandrost-4-en-3-one], the 50% inhibitory concentration (IC50) was more than 100 nM in assay [1], less than 10 nM in assay [2] and 10 to 100 nM in assay [3].

In the case of `CC(C)c1cc(Br)c(NC(=O)[C@H]2CC[C@H]3[C@@H]4CNC5=CC(=O)CC[C@]5(C)[C@H]4CC[C@]23C)c(Br)c1` [Compound 49, 17β-N-(2,6-Dibromo-4-isopropyl)phenyl-carbamoyl-6-azaandrost-4-en-3-one], the half-inhibitory concentration (IC50) in assay [1], in assay [2] and in assay [3] was less than 10 nM in each case.

Regarding `CC(C)c1cccc(C(C)C)c1NC(=O)[C@H]1CC[C@H]2[C@@H]3CNC4=CC(=O)C=C[C@]4(C)[C@H]3CC[C@]12C` [Compound 93, 17β-N-(2,6-Di-i-propyl)phenyl-carbamoyl-6-azaandrost-1,4-dien-3-one], the half-maximal inhibitory concentration (IC50) in assay [1] was 10 to 100 nM; in assay [2], less than 10 nM; in assay [3], more than 100 nM.

By IC50 is commonly meant the concentration that gives 50% inhibition.
